According to the OligoGym collection:
HELM strings list units from the 5' end as sugar, base in round brackets, then linkage (d deoxyribose, r ribose, m 2'-O-methyl, p phosphodiester). Strings are as the collection lists them; they lack the last nucleoside at the 3' end of the tested compound. [moe] = 2'-O-(2-methoxyethyl) (MOE); [sp] = phosphorothioate linkage; [m5C] = 5-methylcytosine

Biological target: PRNP
Experiment: mouse, dose not given
Conditions: ASO

Substance	3 h FOB score
RNA1{[moe]([m5C])[sp].[moe](T)p.[moe]([m5C])p.[moe](T)p.[moe](A)[sp].d(T)[sp].d(G)[sp].d(T)[sp].d(T)[sp].d(T)[sp].d(T)[sp].d([m5C])[sp].d([m5C])[sp].d(A)[sp].d(G)[sp].[moe](T)p.[moe](G)p.[moe]([m5C])[sp].[moe]([m5C])}$$$$ (last 3' nucleoside missing)	1 score 0-7
RNA1{[moe]([m5C])[sp].[moe](T)p.[moe]([m5C])p.[moe](T)p.[moe](A)p.[moe](T)p.d(G)[sp].d(T)[sp].d(T)[sp].d(T)[sp].d(T)[sp].d([m5C])[sp].d([m5C])[sp].d(A)[sp].d(G)[sp].d(T)[sp].[moe](G)p.[moe]([m5C])[sp].[moe]([m5C])}$$$$ (last 3' nucleoside missing)	2 score 0-7
RNA1{[moe]([m5C])[sp].[moe](T)p.[moe]([m5C])p.[moe](T)p.[moe](A)p.d(T)[sp].d(G)[sp].d(T)[sp].d(T)[sp].d(T)[sp].d(T)[sp].d([m5C])[sp].d([m5C])[sp].d(A)[sp].[moe](G)[sp].[moe](T)p.[moe](G)p.[moe]([m5C])}$$$$ (last 3' nucleoside missing)	1 score 0-7
RNA1{[moe]([m5C])[sp].[moe](T)p.[moe]([m5C])p.[moe](T)p.[moe](A)p.d(T)[sp].d(G)[sp].d(T)[sp].d(T)[sp].d(T)[sp].d(T)[sp].d([m5C])[sp].d([m5C])[sp].d(A)[sp].[moe](G)p.[moe](T)p.[moe](G)[sp].[moe]([m5C])}$$$$ (last 3' nucleoside missing)	0.25 score 0-7
RNA1{[moe]([m5C])[sp].[moe](T)p.[moe]([m5C])p.[moe](T)p.d(A)[sp].d(T)[sp].d(G)[sp].d(T)[sp].d(T)[sp].d(T)[sp].d(T)[sp].d([m5C])[sp].d([m5C])[sp].d(A)[sp].[moe](G)p.[moe](T)p.[moe](G)p.[moe]([m5C])[sp].[moe]([m5C])}$$$$ (last 3' nucleoside missing)	3.25 score 0-7
RNA1{[moe]([m5C])[sp].[moe](T)p.[moe]([m5C])p.d(T)[sp].d(A)[sp].d(T)[sp].d(G)[sp].d(T)[sp].d(T)[sp].d(T)[sp].d(T)[sp].d([m5C])[sp].d([m5C])[sp].[moe](A)p.[moe](G)p.[moe](T)p.[moe](G)p.[moe]([m5C])[sp].[moe]([m5C])}$$$$ (last 3' nucleoside missing)	3 score 0-7
RNA1{[moe]([m5C])[sp].[moe]([m5C])p.[moe](A)p.[moe](G)p.[moe](A)[sp].d(A)[sp].d(G)[sp].d(T)[sp].d(T)[sp].d(T)[sp].d(A)[sp].d(A)[sp].d([m5C])[sp].d(A)[sp].d(T)[sp].[moe](A)p.[moe](T)p.[moe](T)[sp].[moe](T)}$$$$ (last 3' nucleoside missing)	0 score 0-7
RNA1{[moe]([m5C])[sp].[moe]([m5C])p.[moe](A)p.[moe](G)p.[moe](A)[sp].d(G)[sp].d(G)[sp].d(T)[sp].d(T)[sp].d([m5C])[sp].d(A)[sp].d(G)[sp].d(T)[sp].d(G)[sp].d(T)[sp].[moe](T)p.[moe](G)p.[moe](T)[sp].[moe](G)}$$$$ (last 3' nucleoside missing)	6.25 score 0-7
RNA1{[moe]([m5C])[sp].[moe]([m5C])p.[moe](A)p.[moe](T)p.[moe](T)[sp].d(T)[sp].d(T)[sp].d([m5C])[sp].d(T)[sp].d(G)[sp].d(T)[sp].d(G)[sp].d([m5C])[sp].d(T)[sp].d(T)[sp].[moe](T)p.[moe](T)p.[moe]([m5C])[sp].[moe]([m5C])}$$$$ (last 3' nucleoside missing)	4 score 0-7
RNA1{[moe]([m5C])[sp].[moe]([m5C])p.[moe](A)p.[moe]([m5C])p.[moe](A)[sp].d(T)[sp].d(A)[sp].d(T)[sp].d(A)[sp].d(G)[sp].d(G)[sp].d(G)[sp].d(T)[sp].d([m5C])[sp].d([m5C])[sp].[moe](T)p.[moe](T)p.[moe](T)[sp].[moe](A)}$$$$ (last 3' nucleoside missing)	1.5 score 0-7
RNA1{[moe]([m5C])[sp].[moe]([m5C])p.[moe](G)p.[moe](T)p.[moe](T)[sp].d([m5C])[sp].d(A)[sp].d(T)[sp].d([m5C])[sp].d(T)[sp].d(T)[sp].d(A)[sp].d(T)[sp].d(T)[sp].d([m5C])[sp].[moe]([m5C])p.[moe]([m5C])p.[moe](A)[sp].[moe](T)}$$$$ (last 3' nucleoside missing)	0 score 0-7
RNA1{[moe]([m5C])[sp].[moe]([m5C])p.[moe](T)p.[moe](G)p.[moe](T)[sp].d(T)[sp].d(A)[sp].d(A)[sp].d(T)[sp].d(G)[sp].d(G)[sp].d(T)[sp].d(G)[sp].d(T)[sp].d([m5C])[sp].[moe]([m5C])p.[moe](A)p.[moe]([m5C])[sp].[moe](T)}$$$$ (last 3' nucleoside missing)	2.5 score 0-7
RNA1{[moe]([m5C])[sp].[moe]([m5C])p.[moe](T)p.[moe](T)p.[moe](T)[sp].d([m5C])[sp].d(A)[sp].d(T)[sp].d(A)[sp].d(T)[sp].d(A)[sp].d(T)[sp].d(G)[sp].d(T)[sp].d(T)[sp].[moe](A)p.[moe]([m5C])p.[moe](A)[sp].[moe](G)}$$$$ (last 3' nucleoside missing)	5 score 0-7
RNA1{[moe]([m5C])[sp].[moe]([m5C])p.[moe]([m5C])p.[moe](A)p.[moe](G)[sp].d(T)[sp].d(G)[sp].d(T)[sp].d(T)[sp].d([m5C])[sp].d([m5C])[sp].d(A)[sp].d(T)[sp].d([m5C])[sp].d([m5C])[sp].[moe](T)p.[moe]([m5C])p.[moe]([m5C])[sp].[moe](A)}$$$$ (last 3' nucleoside missing)	2 score 0-7
RNA1{[moe]([m5C])[sp].[moe]([m5C])p.[moe]([m5C])p.[moe]([m5C])p.[moe](A)[sp].d(G)[sp].d(T)[sp].d(G)[sp].d(T)[sp].d(T)[sp].d([m5C])[sp].d([m5C])[sp].d(A)[sp].d(T)[sp].d([m5C])[sp].[moe]([m5C])p.[moe](T)p.[moe]([m5C])[sp].[moe]([m5C])}$$$$ (last 3' nucleoside missing)	0 score 0-7
